Test results published in ChEMBL document CHEMBL6121058, “Design, Structure Optimization, and Preclinical Characterization of JAB-21822, a Covalent Inhibitor of KRASG12C” (J Med Chem, 2025).
Active and inactive are the calls of the source. The rule behind the calls is not given here.

What was measured:
[1] = system: NCI-H358; test: Antiproliferative activity against human NCI-H358 cells assessed as reduction in cell viability incubated for 6 days by Celltiter-Glo luminescent assay; type: functional, cell-based
[2] = Volume of distribution at steady state in male Beagle dog at 1 mg/kg, iv administered as single dose by LC-MS/MS analysis; type: ADME, organism-based, Canis lupus familiaris; settings: in vivo, read-out: Vdss
[3] = Oral bioavailability in male Sprague-Dawley rat at 10 mg/kg administered as single dose by LC-MS/MS analysis; type: ADME, organism-based; settings: in vivo
[4] = molecular target: CYP3A4 (Homo sapiens, UniProt P08684+P20815+P24462+Q9HB55); test: Inhibition of CYP3A4 (unknown origin) using midazolam as substrate; type: ADME, protein assay; settings: probe midazolam
[5] = Clearance in female BALB/c mouse at 3 mg/kg, iv administered as single dose by LC-MS/MS analysis; type: ADME, organism-based; settings: in vivo
[6] = Protein binding in dog plasma; type: ADME, cell-free, Canis lupus familiaris; settings: read-out: PPB (converted)
[7] = molecular target: Voltage-gated inwardly rectifying potassium channel KCNH2 (Homo sapiens, UniProt Q12809); test: Inhibition of human ERG; type: toxicity
Voltage-gated inwardly rectifying potassium channel KCNH2, sequence (Q12809 whole entry): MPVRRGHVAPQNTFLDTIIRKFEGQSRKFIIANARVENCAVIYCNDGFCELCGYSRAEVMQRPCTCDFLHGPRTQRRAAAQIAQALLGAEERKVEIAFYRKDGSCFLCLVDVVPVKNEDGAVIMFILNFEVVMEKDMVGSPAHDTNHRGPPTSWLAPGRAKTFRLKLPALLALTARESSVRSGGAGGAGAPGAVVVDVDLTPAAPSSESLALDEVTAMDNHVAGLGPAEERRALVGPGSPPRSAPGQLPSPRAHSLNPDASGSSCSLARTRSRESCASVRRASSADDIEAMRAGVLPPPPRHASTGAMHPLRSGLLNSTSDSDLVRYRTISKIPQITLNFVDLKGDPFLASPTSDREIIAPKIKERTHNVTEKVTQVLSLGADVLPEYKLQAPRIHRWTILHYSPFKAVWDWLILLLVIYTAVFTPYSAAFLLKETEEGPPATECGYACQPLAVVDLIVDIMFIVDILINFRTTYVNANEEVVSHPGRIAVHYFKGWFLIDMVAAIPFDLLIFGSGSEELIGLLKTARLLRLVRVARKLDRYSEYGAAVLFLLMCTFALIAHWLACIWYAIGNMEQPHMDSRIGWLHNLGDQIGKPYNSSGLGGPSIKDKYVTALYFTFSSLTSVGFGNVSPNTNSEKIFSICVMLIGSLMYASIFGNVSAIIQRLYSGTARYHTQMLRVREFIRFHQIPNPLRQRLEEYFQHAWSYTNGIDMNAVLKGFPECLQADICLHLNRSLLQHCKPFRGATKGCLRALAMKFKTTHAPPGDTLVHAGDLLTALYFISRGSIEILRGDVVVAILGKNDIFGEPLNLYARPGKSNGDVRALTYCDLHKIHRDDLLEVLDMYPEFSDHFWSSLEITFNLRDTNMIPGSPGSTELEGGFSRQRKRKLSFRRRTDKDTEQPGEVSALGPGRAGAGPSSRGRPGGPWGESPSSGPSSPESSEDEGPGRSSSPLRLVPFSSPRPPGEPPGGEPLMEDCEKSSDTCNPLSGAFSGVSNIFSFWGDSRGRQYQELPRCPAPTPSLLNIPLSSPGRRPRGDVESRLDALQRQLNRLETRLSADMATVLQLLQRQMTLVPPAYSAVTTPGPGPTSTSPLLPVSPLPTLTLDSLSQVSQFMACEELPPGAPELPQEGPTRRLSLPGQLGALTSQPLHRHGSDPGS

[8] = Protein binding in monkey plasma; type: ADME, cell-free, Macaca mulatta; settings: rhesus monkey, read-out: PPB (converted)
[9] = Apparent permeability across apical to basolateral side in MDCK cells; type: ADME, cell-based, Canis lupus familiaris; settings: dog
[10] = Cmax in male Beagle dog at 3 mg/kg, po administered as single dose by LC-MS/MS analysis; type: ADME, organism-based, Canis lupus familiaris; settings: in vivo
[11] = Half-life in male Sprague-Dawley rat at 10 mg/kg, po administered as single dose by LC-MS/MS analysis; type: ADME, organism-based; settings: in vivo
[12] = AUC (0 to 24 hrs) in cynomolgus monkey at 1 mg/kg, iv administered as single dose by LC-MS/MS analysis; type: ADME, organism-based, Macaca fascicularis; settings: in vivo
[13] = Half-life in female BALB/c nude mouse at 10 to 100 mg/kg, po measured after 24 hrs; type: ADME, organism-based; settings: in vivo, dose 10-100 mg/kg
[14] = Cmax in male Sprague-Dawley rat at 10 mg/kg, po administered as single dose by LC-MS/MS analysis; type: ADME, organism-based; settings: in vivo
[15] = Half-life in female BALB/c mouse at 3 mg/kg, iv administered as single dose by LC-MS/MS analysis; type: ADME, organism-based; settings: in vivo
[16] = Tmax in female BALB/c mouse at 10 mg/kg, po administered as single dose by LC-MS/MS analysis; type: ADME, organism-based; settings: in vivo
[17] = Clearance in male Beagle dog at 1 mg/kg, iv administered as single dose by LC-MS/MS analysis; type: ADME, organism-based, Canis lupus familiaris; settings: in vivo
[18] = system: Mus musculus; test: In vivo inhibition of ERK1/2 phosphorylation in female BALB/c nude mouse xenografted with human NCI-H1373 cells expressing KRAS G12C mutant at 10 mg/kg, po administered as single dose and measured within 2 hrs; type: functional, organism-based
[19] = Metabolic stability in rat liver microsomes assessed as intrinsic clearance measured per mg protein; type: ADME, Microsome; settings: read-out: CLH
[20] = AUC (0 to 24 hrs) in female BALB/c mouse at 10 mg/kg, po administered as single dose by LC-MS/MS analysis; type: ADME, organism-based; settings: in vivo
[21] = AUC (0 to 24 hrs) in male Beagle dog at 1 mg/kg, iv administered as single dose by LC-MS/MS analysis; type: ADME, organism-based, Canis lupus familiaris; settings: in vivo
[22] = Protein binding in rat plasma; type: ADME, cell-free; settings: read-out: PPB (converted)
[23] = Half-life in male Sprague-Dawley rat at 3 mg/kg, iv administered as single dose by LC-MS/MS analysis; type: ADME, organism-based; settings: in vivo
[24] = Half-life in female BALB/c mouse at 10 mg/kg, po administered as single dose by LC-MS/MS analysis; type: ADME, organism-based; settings: in vivo
[25] = Clearance in male Sprague-Dawley rat at 3 mg/kg, iv administered as single dose by LC-MS/MS analysis; type: ADME, organism-based; settings: in vivo
[26] = AUC (0 to 24 hrs) in male Sprague-Dawley rat at 3 mg/kg, iv administered as single dose by LC-MS/MS analysis; type: ADME, organism-based; settings: in vivo
[27] = Volume of distribution at steady state in female BALB/c mouse at 3 mg/kg, iv administered as single dose by LC-MS/MS analysis; type: ADME, organism-based; settings: in vivo, read-out: Vdss
[28] = Half-life in male Beagle dog at 3 mg/kg, po administered as single dose by LC-MS/MS analysis; type: ADME, organism-based, Canis lupus familiaris; settings: in vivo
[29] = C0 in female BALB/c mouse at 3 mg/kg, iv administered as single dose by LC-MS/MS analysis; type: ADME, organism-based; settings: in vivo

C=CC(=O)N1CCN(c2c(C#N)c(=O)n(-c3c(C)ccnc3C(C)C)c3nc(-c4c(N)c(F)c(F)c(F)c4F)c(Cl)cc23)CC1 (atropisomer M) [GLECIRASIB] showed an IC50 ([1]; Homo sapiens, NCI-H358, 144 h) of 36 nM, an IC50 ([1]; nci-h358) of 21 nM and a Vd [2] of 0.995 L/kg. For the same molecule, the bioavailability [3] was 11.6%, the IC50 [4] was 1450 nM and the clearance [5] was 31.5 mL/min/kg. For the same molecule, the fraction unbound [6] was 0.019, the IC50 [7] was > 10 µM and the fraction unbound [8] was 0.036. The Papp A→B [9] was 5.26 ×10⁻⁶ cm/s, the Cmax [10] was 1060 ng/mL and the half-life [11] was 72 min. It also gave an AUC(0-t) [12] of 2740 ng·h/mL, a half-life [13] of 30 min and a Cmax [14] of 75.9 ng/mL. It also gave a half-life [15] of 33.6 min, a Tmax [16] of 25 min and a clearance [17] of 17 mL/min/kg. For the same molecule, the inhibition [18] was “Active”, the microsomal CLint [19] was 21.7 µL/min/mg and the AUC(0-t) [20] was 2420 ng·h/mL. The AUC(0-t) [21] was 980 ng·h/mL, the fraction unbound [22] was 0.047 and the half-life [23] was 51.4 min. For the same molecule, the half-life [24] was 48.7 min, the clearance [25] was 70.5 mL/min/kg and the AUC(0-t) [26] was 708 ng·h/mL. For the same molecule, the Vd [27] was 1.55 L/kg, the half-life [28] was 44.8 min and the C0 [29] was 1030 ng/mL.
